Assay [1] deals with biotinylated Avi-POLθ[2-894] (Homo sapiens (Human), UniProt O75417). Nature of the assay: POLθ ATPase assay (ADP-Glo). Particulars: POLθ ATPase, ADP-Glo; n=2; read-out: Biochemical ATPase ADPGlo IC50.
A further assay relates to DLD1 BRCA2 (−/−) cells. The assay can be described thus: 7-day cell viability assay (CellTiter-Glo), DLD1 BRCA2 (−/−). Format: cell-based, human. The following applies: 7-day CellTiter-Glo, n=2, read-out: Viability IC50 (uM) DLD1 BRCA2 null. The method in brief: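 7-day growth assay in DLD1 cells with or without BRCA2; seeding densities chosen to keep log-linear growth. Compound: 10 uM top, 3-fold, 9 points. Endpoint: CTG ATP luminescence at RT.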

Another assay concerns DLD1 WT cells. The assay can be described thus: 7-day cell viability assay (CellTiter-Glo), DLD1 parental (WT). Format: cell-based, human. The following applies: 7-day CellTiter-Glo, n=2.

Sequence of biotinylated Avi-POLθ[2-894] (O75417 2-894): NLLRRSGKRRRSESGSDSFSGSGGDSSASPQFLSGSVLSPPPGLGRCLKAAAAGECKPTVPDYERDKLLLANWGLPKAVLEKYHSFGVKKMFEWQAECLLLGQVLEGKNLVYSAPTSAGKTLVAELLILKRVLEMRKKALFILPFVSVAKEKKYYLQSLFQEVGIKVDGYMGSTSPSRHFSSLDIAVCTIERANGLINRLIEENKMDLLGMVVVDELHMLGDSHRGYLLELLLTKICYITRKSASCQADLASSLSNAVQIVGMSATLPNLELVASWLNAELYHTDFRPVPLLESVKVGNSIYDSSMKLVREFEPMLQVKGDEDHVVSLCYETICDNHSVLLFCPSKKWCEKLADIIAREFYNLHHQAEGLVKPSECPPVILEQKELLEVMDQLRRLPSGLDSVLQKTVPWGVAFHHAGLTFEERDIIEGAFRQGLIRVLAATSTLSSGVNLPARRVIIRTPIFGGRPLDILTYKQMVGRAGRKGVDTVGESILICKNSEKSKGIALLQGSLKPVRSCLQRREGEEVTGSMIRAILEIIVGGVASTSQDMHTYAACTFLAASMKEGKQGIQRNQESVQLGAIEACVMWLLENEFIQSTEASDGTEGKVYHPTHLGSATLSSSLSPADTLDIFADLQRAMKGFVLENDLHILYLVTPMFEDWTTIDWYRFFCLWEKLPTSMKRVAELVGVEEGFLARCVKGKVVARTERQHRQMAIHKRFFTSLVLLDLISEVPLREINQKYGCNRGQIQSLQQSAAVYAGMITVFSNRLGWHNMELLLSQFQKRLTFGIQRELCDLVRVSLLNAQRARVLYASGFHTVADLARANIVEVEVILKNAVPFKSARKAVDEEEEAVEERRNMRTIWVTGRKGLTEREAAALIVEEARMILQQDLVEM

As for “N-(5-(4-Chloro-2-methoxybenzoyl)-5,6-dihydro-4H-pyrrolo[3,4-d]thiazol-2-yl)-4-(5-cyano-2-methoxyphenyl)-6-methylnicotinamide [Example 437]”, the values for the IC50 (in assay [1]; in the assay with DLD1 BRCA2 (−/−) cells; in the assay on DLD1 WT cells) were 1 to 15 nM, 0.001 to 0.1 µM and ≥ 10 µM, respectively.

For the origin of these results see patent US20250230171A1 (MOMA Therapeutics, Inc., priority 2023, published 2025).
